Patent US20020173538A1, “Method for sensitizing cancer cells to cancer therapies with a mevalonate-reducing compound” (priority 2000, published 2002)
Read-outs that look alike come from different tables or passages of the source.

Assays:
Hep 3B/T2 cells [1] = assay: Tumor growth of Hep 3B/T2 cells in nude mice; format: in vivo, BALB/c-nu/nu nude mice
Source text: The descriptive statistics were summarized as mean±STD. For statistical analysis, Student's t-test was used to determine significance of mean differences between groups.

Hep 3B cells [2] = assay: Cell cycle determination by flow cytometry, Hep 3B; format: cell-based, human; conditions: cell line not given
Hep 3B/T2 cells [3] = assay: Tumor growth of Hep 3B/T2 cells in nude mice; format: in vivo, BALB/c-nu/nu nude mice; conditions: for Tumor size: LOV 75 mg/kg/day p.o. days 8-14 and/or taxol 120 μg/kg/day i.p. days 15-19, n = 3
[4] = MTT cell viability assay, Hep G2 cells (serum-free DMEM); conditions: human, Hep G2 cells, Cell viability
Source text: (§1) Human hepatoma cell lines Hep G2 and Hep 3 were chosen as the in vitro models of hepatocytes and hepatoma, respectively.

Hep G2 cells = assay: as above; conditions: Homo sapiens
Source text: as §1

Hep 3B cells [5] = assay: MTT cell viability assay, Hep 3B cells (serum-free DMEM); conditions: Homo sapiens, Hep3B, 48 h
Source text: as §1

[6] = Cycle 1 (Day 42), LOV 37.5 mg/kg/day p.o. days 28-34 and 49-55 and/or taxol 120 μg/kg/2 day i.p. day 36, 38, 40, 57, 59, 61
[7] = Cycle 2 (Day 63), LOV 37.5 mg/kg/day p.o. days 28-34 and 49-55 and/or taxol 120 μg/kg/2 day i.p. day 36, 38, 40, 57, 59, 61

In the case of `CC(=O)O[C@H]1C(=O)[C@@]2(C)[C@H]([C@H](OC(=O)c3ccccc3)[C@]3(O)C[C@H](OC(=O)[C@H](O)[C@@H](NC(=O)c4ccccc4)c4ccccc4)C(C)=C1C3(C)C)[C@]1(OC(C)=O)CO[C@@H]1C[C@@H]2O` [Taxol, paclitaxel], the Tumor size (Hep 3B/T2 cells [1]; [6]) is reported as 0.465 cm^3, the Tumor size (Hep 3B/T2 cells [1]; [7]) is reported as 1.424 cm^3 and the “percentage of inhibition of tumor size” value (Hep 3B/T2 cells [1]; [7]) is reported as “(−43.1%”. For the same compound, the Tumor size (Hep 3B/T2 cells [1]; Day 15, LOV 75 mg/kg/day p.o. days 8-14 and/or taxol 120 μg/kg/day i.p. days 15-19, n = 3) was 0.125 cm^3, the Tumor size (Hep 3B/T2 cells [1]; Day 20, LOV 75 mg/kg/day p.o. days 8-14 and/or taxol 120 μg/kg/day i.p. days 15-19, n = 3) was 0.047 cm^3 and the Tumor size (Hep 3B/T2 cells [1]; Day 23, LOV 75 mg/kg/day p.o. days 8-14 and/or taxol 120 μg/kg/day i.p. days 15-19, n = 3) was 0.037 cm^3. For the same compound, the “Tumor size (1 × w^2 × 0.52 cm^3) Day 28” value (Hep 3B/T2 cells [1]; Day 28 after inoculation of 1 × 10^7 Hep 3B/T2 cells in male BALB/c-nu/nu nude mice, p.o. lovastatin 37.5 mg/kg/day (days 28-34, 49-55) and/or i.p. taxol 120 μg/kg/2 day (days 36, 38, 40, 57, 59, 61), mean ± SEM) was 0.170 cm^3, the Tumor size (Hep 3B/T2 cells [1]; after two cycles: lovastatin fed 7 days, then paclitaxel injected 3 days (FIG. 38), mean±STD) was 1.43±0.46 cm^3 and the “cell cycle arrest stage” value (Hep 3B cells [2]) was “G2/M arrest”. For the same compound, the “percentage of inhibition of tumor size” value (Hep 3B/T2 cells [3]; [6]) was “(−54.2%”, the Tumor size (Hep 3B/T2 cells [3]; Day 8) was 0.111 cm^3 and the Tumor size (Hep 3B/T2 cells [3]; Day 11) was 0.125 cm^3. For the same compound, the Tumor size (Hep 3B/T2 cells [3]; Day 17) was 0.063 cm^3, the Tumor size (Hep 3B/T2 cells [3]; Day 26) was 0.064 cm^3 and the Tumor size (Hep 3B/T2 cells [3]; Day 29) was 0.137 cm^3. The “Tumor size (1 × w^2 × 0.52 cm^3) Day 35” value (Hep 3B/T2 cells [3]; Day 35 after inoculation, p.o. lovastatin 37.5 mg/kg/day (days 28-34, 49-55) and/or i.p. taxol 120 μg/kg/2 day (days 36, 38, 40, 57, 59, 61), mean ± SEM) was 0.400 cm^3, the “Tumor size (1 × w^2 × 0.52 cm^3) Day 38” value (Hep 3B/T2 cells [3]; Day 38 after inoculation, p.o. lovastatin 37.5 mg/kg/day (days 28-34, 49-55) and/or i.p. taxol 120 μg/kg/2 day (days 36, 38, 40, 57, 59, 61), mean ± SEM) was 0.415 cm^3 and the “Tumor size (1 × w^2 × 0.52 cm^3) Day 42” value (Hep 3B/T2 cells [3]; Day 42 after inoculation, p.o. lovastatin 37.5 mg/kg/day (days 28-34, 49-55) and/or i.p. taxol 120 μg/kg/2 day (days 36, 38, 40, 57, 59, 61), mean ± SEM) was 0.465 cm^3. For the same compound, the “Tumor size (1 × w^2 × 0.52 cm^3) Day 49” value (Hep 3B/T2 cells [3]; Day 49 after inoculation, p.o. lovastatin 37.5 mg/kg/day (days 28-34, 49-55) and/or i.p. taxol 120 μg/kg/2 day (days 36, 38, 40, 57, 59, 61), mean ± SEM) was 0.811 cm^3, the “Tumor size (1 × w^2 × 0.52 cm^3) Day 56” value (Hep 3B/T2 cells [3]; Day 56 after inoculation, p.o. lovastatin 37.5 mg/kg/day (days 28-34, 49-55) and/or i.p. taxol 120 μg/kg/2 day (days 36, 38, 40, 57, 59, 61), mean ± SEM) was 0.996 cm^3 and the “Tumor size (1 × w^2 × 0.52 cm^3) Day 63” value (Hep 3B/T2 cells [3]; Day 63 after inoculation, p.o. lovastatin 37.5 mg/kg/day (days 28-34, 49-55) and/or i.p. taxol 120 μg/kg/2 day (days 36, 38, 40, 57, 59, 61), mean ± SEM) was 1.424 cm^3. The viability at 48 h, 2 nM ([4]; no lovastatin 48 hr, then taxol 2 nM 48 hr) was 92.2 ± 1.5%, the viability at 48 h, 5 nM ([4]; no lovastatin 48 hr, then taxol 5 nM 48 hr) was 61.5 ± 2.2% and the viability at 48 h, 10 nM ([4]; no lovastatin 48 hr, then taxol 10 nM 48 hr) was 57.9 ± 3.3%. It also gave a viability at 48 h, 2 nM ([4]; no lovastatin 72 hr, then taxol 2 nM 48 hr) of 85.1 ± 1.9%, a viability at 72 hr, 2 nM ([4]; no lovastatin 72 hr, then taxol 2 nM 72 hr) of 77.7 ± 2.6% and a viability at 48 h, 5 nM ([4]; no lovastatin 72 hr, then taxol 5 nM 48 hr) of 64.2 ± 1.2%. For the same compound, the viability at 72 h, 5 nM ([4]; no lovastatin 72 hr, then taxol 5 nM 72 hr) was 65.8 ± 1.3%, the viability at 48 h, 10 nM ([4]; no lovastatin 72 hr, then taxol 10 nM 48 hr) was 60.5 ± 3.2% and the viability at 72 h, 10 nM ([4]; no lovastatin 72 hr, then taxol 10 nM 72 hr) was 63.6 ± 8.4%. For the same compound, the viability at 96 h, 2 nM ([4]; taxol 2 nM alone, Table 10) was 72.4 ± 6.9%, the viability at 48 h, 2 nM ([4]; taxol 2 nM, 48 hr) was 94.5 ± 5.4% and the viability at 48 h, 2 nM ([4]; taxol 2 nM, 48 hr, Table 9) was 88 ± 1.9%. It also gave a viability at 72 h, 2 nM ([4]; taxol 2 nM, 72 hr) of 89.2 ± 2.6%, a viability at 72 h, 2 nM ([4]; taxol 2 nM, 72 hr, Table 9) of 89.2 ± 2.6% and a viability at 96 h, 2 nM ([4]; taxol 2 nM) of 66.6 ± 3.5%. The viability at 120 h, 2 nM ([4]; taxol 2 nM, 120 hr) was 65.1 ± 0.9%, the viability at 96 h, 5 nM ([4]; taxol 5 nM alone, Table 10) was 49.3 ± 9.9% and the viability at 48 h, 5 nM ([4]; taxol 5 nM, 48 hr) was 72.9 ± 4%. For the same compound, the viability at 48 h, 5 nM ([4]; taxol 5 nM, 48 hr, Table 9) was 74.7 ± 2.3%, the viability at 72 h, 5 nM ([4]; taxol 5 nM, 72 hr) was 63.7 ± 2.3% and the viability at 72 h, 5 nM ([4]; taxol 5 nM, 72 hr, Table 9) was 63.7 ± 2.3%. It also gave a viability at 96 h, 5 nM ([4]; taxol 5 nM) of 36.2 ± 5.5%, a viability at 120 h, 5 nM ([4]; taxol 5 nM, 120 hr) of 33.8 ± 0.6% and a viability at 96 h, 10 nM ([4]; taxol 10 nM alone, Table 10) of 24.8 ± 2.5%. For the same compound, the viability at 48 h, 10 nM ([4]; taxol 10 nM, 48 hr) was 64.2 ± 3.8%, the viability at 48 h, 10 nM ([4]; taxol 10 nM, 48 hr, Table 9) was 58.1 ± 8.1% and the viability at 72 h, 10 nM ([4]; taxol 10 nM, 72 hr) was 39 ± 0.5%. It also gave a viability at 72 h, 10 nM ([4]; taxol 10 nM, 72 hr, Table 9) of 39 ± 0.5%, a viability at 96 h, 10 nM ([4]; taxol 10 nM) of 22.7 ± 4.1% and a viability at 120 h, 10 nM ([4]; taxol 10 nM, 120 hr) of 19 ± 3.4%. The viability at 48 h, 20 nM ([4]; taxol 20 nM, 48 hr) was 53.5 ± 1.1%, the viability at 72 h, 20 nM ([4]; taxol 20 nM, 72 hr) was 35.4 ± 3.6% and the viability at 48 h, 50 nM ([4]; taxol 50 nM, 48 hr) was 47 ± 2.3%. It also gave a viability at 72 h, 50 nM ([4]; taxol 50 nM, 72 hr) of 33.9 ± 3.7%, a viability at 48 h, 100 nM ([4]; taxol 100 nM, 48 hr) of 34.6 ± 9.1% and a viability at 72 h, 100 nM ([4]; taxol 100 nM, 72 hr) of 19.5 ± 4.6%. The viability at 48 h, 200 nM ([4]; taxol 200 nM, 48 hr) was 35.4 ± 5.5%, the viability at 72 h, 200 nM ([4]; taxol 200 nM, 72 hr) was 15.6 ± 5.8% and the viability at 48 h, 500 nM ([4]; taxol 500 nM, 48 hr) was 29.1 ± 4.2%. The viability at 72 h, 500 nM ([4]; taxol 500 nM, 72 hr) was 11 ± 5%, the viability at 48 h, 1000 nM ([4]; taxol 1000 nM, 48 hr) was 15 ± 3.9% and the viability at 72 h, 1000 nM ([4]; taxol 1000 nM, 72 hr) was 9.9 ± 4.9%. For the same compound, the IC50 (Hep G2 cells; HepG2, 48 h, read-out: IC50 (cell viability), 48 hr, Table 8) was 40.8 ± 7 nM, the IC50 (Hep G2 cells; HepG2, 48 h, read-out: IC50 (cell viability), 48 hr, Table 9) was 12.4 nM and the IC50 (Hep G2 cells; HepG2, 72 h, read-out: IC50 (cell viability), 72 hr, Table 8) was 7.8 ± 1 nM. It also gave an IC50 (Hep G2 cells; HepG2, 72 h, read-out: IC50 (cell viability), 72 hr, Table 9) of 7.8 nM, an IC50 (Hep G2 cells; HepG2, 96 h, read-out: IC50 (cell viability), 96 hr) of 3.6 nM and an IC50 (Hep G2 cells; HepG2, 120 h, read-out: IC50 (cell viability), 120 hr) of 3.5 nM. It also gave a viability at 0.002 µM (Hep 3B cells [5]; read-out: Cell viability, taxol 2 nM, 48 hr) of 93.1 ± 1.3% and a viability at 0.002 µM (Hep 3B cells [5]; read-out: Cell viability, taxol 2 nM, 48 hr, Table 9) of 97 ± 1.5%.
